Structures can show the parent of a compound that is named as a salt. Where two headings read alike, the source gives them in different places.
Experiments:
[1] = biological target: purified human Factor XIa (Homo sapiens (Human), UniProt P03951); assay: biochemical; format: biochemical; details: read-out: Factor XIa Ki
[2] = biological target: purified human plasma kallikrein (Homo sapiens (Human), UniProt P03952); assay: biochemical; format: biochemical
purified human plasma kallikrein, sequence (P03952 whole entry, looked up): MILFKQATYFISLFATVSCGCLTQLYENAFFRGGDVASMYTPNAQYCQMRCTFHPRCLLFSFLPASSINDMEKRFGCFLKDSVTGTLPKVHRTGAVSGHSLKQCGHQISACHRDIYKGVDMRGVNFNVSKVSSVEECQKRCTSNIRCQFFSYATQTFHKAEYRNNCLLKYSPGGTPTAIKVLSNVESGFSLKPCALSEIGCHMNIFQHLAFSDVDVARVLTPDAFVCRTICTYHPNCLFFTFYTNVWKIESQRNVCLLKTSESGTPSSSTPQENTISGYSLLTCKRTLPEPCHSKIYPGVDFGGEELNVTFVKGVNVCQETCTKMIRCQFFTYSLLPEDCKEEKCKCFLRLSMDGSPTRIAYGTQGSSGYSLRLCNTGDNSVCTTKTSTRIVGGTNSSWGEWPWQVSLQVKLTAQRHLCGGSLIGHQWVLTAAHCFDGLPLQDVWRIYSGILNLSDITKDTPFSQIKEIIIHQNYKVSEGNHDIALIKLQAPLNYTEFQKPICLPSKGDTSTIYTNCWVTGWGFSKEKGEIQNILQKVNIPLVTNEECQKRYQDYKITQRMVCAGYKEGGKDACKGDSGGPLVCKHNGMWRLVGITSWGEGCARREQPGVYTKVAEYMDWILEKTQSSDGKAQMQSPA
purified human plasma kallikrein, sequence (P03952 whole entry partner, looked up): as the sequence (P03952 whole entry, looked up) above

purified human Factor XIa, sequence (P03951 whole entry, looked up): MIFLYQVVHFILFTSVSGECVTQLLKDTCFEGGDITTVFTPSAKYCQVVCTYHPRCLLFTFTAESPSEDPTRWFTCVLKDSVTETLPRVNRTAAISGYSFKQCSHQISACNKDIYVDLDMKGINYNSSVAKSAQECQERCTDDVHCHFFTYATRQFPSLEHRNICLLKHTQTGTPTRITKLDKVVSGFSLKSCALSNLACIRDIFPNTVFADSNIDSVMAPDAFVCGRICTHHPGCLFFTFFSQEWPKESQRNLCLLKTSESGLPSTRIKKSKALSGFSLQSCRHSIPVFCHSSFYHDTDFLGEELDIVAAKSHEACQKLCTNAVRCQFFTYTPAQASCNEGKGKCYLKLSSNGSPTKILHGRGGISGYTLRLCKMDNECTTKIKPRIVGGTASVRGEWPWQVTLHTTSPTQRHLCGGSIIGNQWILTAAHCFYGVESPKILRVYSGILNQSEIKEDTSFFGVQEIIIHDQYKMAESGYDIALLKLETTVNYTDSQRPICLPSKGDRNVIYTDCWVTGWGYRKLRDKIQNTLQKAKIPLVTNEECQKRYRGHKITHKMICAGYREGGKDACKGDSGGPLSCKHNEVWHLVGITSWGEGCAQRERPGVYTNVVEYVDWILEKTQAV
purified human Factor XIa, sequence (P03951 whole entry partner, looked up): as the sequence (P03951 whole entry, looked up) above

| Compound | Ki [1] [nM] | Ki ([2]; read-out: Plasma Kallikrein Ki) [nM] | Ki ([2]; Plasma Kallikrein Ki) [nM] |
| --- | --- | --- | --- |
| C[C@@H]1CCC[C@H](N2CCC(c3c(F)ccc(Cl)c3F)=CC2=O)c2cc(ccn2)-c2cc(Br)c(N)cc2NC1=O [Example 193, (10R,14S)-5-amino-4-bromo-14-[4-(3-chloro-2,6-difluorophenyl)-6-oxo-1,2,3,6-tetrahydropyridin-1-yl]-10-methyl-8,16-diazatricyclo[13.3.1.0^2,7]nonadeca-1(19),2(7),3,5,15,17-hexaen-9-one, 2 TFA salt] | 1.02 | 3.91 | – |
| COC(=O)Nc1ccc2c(c1)NC(=O)[C@H](C)CCC[C@H](N1CCC(c3c(C(C)=O)ccc(Cl)c3F)=CC1=O)c1cc(F)cc-2c1 [Example 191, Methyl N-[(10R,14S)-14-[4-(6-acetyl-3-chloro-2-fluorophenyl)-6-oxo-1,2,3,6-tetrahydropyridin-1-yl]-17-fluoro-10-methyl-9-oxo-8-azatricyclo[13.3.1.0^2,7]nonadeca-1(19),2,4,6,15,17-hexaen-5-yl]carbamate] | 0.23 | 19.2 | – |
| COC(=O)Nc1ccc2c(c1)NC(=O)[C@H](C)CCC[C@H](N1CCC(c3cc(C)ccc3F)=CC1=O)c1cc-2ccn1 [Example 113, Methyl N-[(10R,14S)-14-[4-(2-fluoro-5-methylphenyl)-6-oxo-1,2,3,6-tetrahydropyridin-1-yl]-10-methyl-9-oxo-8,16-diazatricyclo[13.3.1.0^2,7]nonadeca-1(18),2,4,6,15(19),16-hexaen-5-yl]carbamate] | 7.24 | 15.6 | – |
| CC1CCC[C@H](N2CCC(c3c(F)ccc(Cl)c3F)=CC2=O)c2cc(ccn2)-c2ccc(C#N)cc2NC1=O (stereo partly drawn) [Example 109, (14S)-14-[4-(3-Chloro-2,6-difluorophenyl)-6-oxo-1,2,3,6-tetrahydropyridin-1-yl]-10-methyl-9-oxo-8,16-diazatricyclo[13.3.1.0^2,7]nonadeca-1(18),2,4,6,15(19),16-hexaene-5-carbonitrile, TFA salt] | – | 40 | – |
| C[C@@H]1CCC[C@H](N2CCC(c3c(F)ccc(Cl)c3F)=CC2=O)c2cc(ccn2)-c2ccc(NC3O[C@H](CO)[C@@H](O)[C@@H](O)[C@H]3NC(=O)OC(C)(C)C)cc2NC1=O (stereo partly drawn) [Example 132, tert-butyl N-[(3R,4S,5S,6R)-2-{[(10R,14S)-14-[4-(3-chloro-2,6-difluorophenyl)-6-oxo-1,2,3,6-tetrahydropyridin-1-yl]-10-methyl-9-oxo-8,16-diazatricyclo[13.3.1.0^2,7]nonadeca-1(19),2,4,6,15,17-hexaen-5-yl]amino}-4,5-dihydroxy-6-(hydroxymethyl)oxan-3-yl]carbamate] | – | 17.3 | – |
| COC(=O)Nc1ccc2c(c1)NC(=O)[C@H](C)CCC[C@H](N1CCC(c3cccc(Cl)c3F)=CC1=O)c1nc-2c(C)[nH]1 [Example 151, Methyl N-[(10R,14S)-14-[4-(3-chloro-2-fluorophenyl)-6-oxo-1,2,3,6-tetrahydropyridin-1-yl]-10,17-dimethyl-9-oxo-8,16,18-triazatricyclo[13.2.1.0^2,7]octadeca-1(17),2,4,6,15(18)-pentaen-5-yl]carbamate] | – | 23.8 | – |
| COC(=O)Nc1ccc2c(c1)NC(=O)[C@H](C)CCC[C@H](N1CC(C)C(c3c(F)ccc(Cl)c3F)=CC1=O)c1cc-2ccn1 (single isomer, unassigned; isomer 2) [Example 178] | – | – | 5.68 |
| C[C@@H]1CCC[C@H](N2CCC(c3c(F)ccc(Cl)c3F)=CC2=O)c2cc(ccn2)-c2cc(Cl)c(O)c(Cl)c2NC1=O [Example 20, (10R,14S)-4,6-Dichloro-14-[4-(3-chloro-2,6-difluorophenyl)-6-oxo-1,2,3,6-tetrahydropyridin-1-yl]-5-hydroxy-10-methyl-8,16-diazatricyclo[13.3.1.0^2,7]nonadeca-1(19),2,4,6,15,17-hexaen-9-one, TFA salt] | – | 973 | – |

— patent US9409908B2 (priority 2012, dated 2016)
